# Measured values: US20250242040A1, “ALBUMIN CONJUGATE, PREPARATION METHOD THEREFOR AND USE THEREOF” (Suzhou KangDeRui Pharmaceutical, Ltd., priority 2023, published 2025)
# Non-standard residues stand in square brackets, D forms with d. Residues, ends and D or L forms follow the SMILES beside them. Dolaproine = CO[C@@H]([C@@H]1CCCN1)[C@@H](C)C(=O)O; Dil = CC[C@H](C)[C@H](NC)[C@@H](CC(=O)O)OC; NMeV = CN[C@H](C(=O)O)C(C)C
# Tested on: A-549 cells
# Experiment: Apoptosis assay of A-549 cells by flow cytometry (in vitro cytotoxic activity)
# Type: cell-based
# Description: The apoptosis of A-549 cells was analyzed by flow cytometry (FIG. 2).
compound,measurement,value
"CC[C@H](C)[C@@H]([C@@H](CC(=O)N1CCC[C@H]1[C@H](OC)[C@@H](C)C(=O)N[C@@H](Cc1ccccc1)C(=O)O)OC)N(C)C(=O)[C@@H](NC(=O)[C@@H](NC)C(C)C)C(C)C [MMAF, monomethyl auristatin F] (H-[NMeV]V[Dil][Dolaproine]F-OH)",apoptosis efficiency,12.3%
